Laboratory results taken from US20110319392A1, “Thiazole Sulfonamide And Oxazole Sulfonamide Kinase Inhibitors” (priority 2009, published 2011).
Structures can show the parent of a compound that is named as a salt.

Key:
EGFR = molecular target: T1, EGFR (Homo sapiens, UniProt P00533); test: EGFR substrate phosphorylation assay (HTRF); type: biochemical
T1 construct: made in house; host or cells: baculovirus expression system
Outline: (§1)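 Baculovirus-expressed EGFR (0.8 nM) or ErbB2 (10 nM) in enzyme mix, preincubated 1 h at 20 °C with compound (0.00027–47.6 μM final), then 90 min at 20 °C with substrate mix of 20 μM ATP, 0.8 uM biotinylated Peptide C, MnCl2, MOPS pH 7.5. Phosphotyrosine by HTRF; pIC50 reported.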

ErbB2 = molecular target: T2, ErbB2 (Homo sapiens, UniProt P04626); test: ErbB-2 substrate phosphorylation assay (HTRF); type: biochemical
T2 construct: made in house; host or cells: baculovirus expression system
T2 sequence (P04626 23-1255): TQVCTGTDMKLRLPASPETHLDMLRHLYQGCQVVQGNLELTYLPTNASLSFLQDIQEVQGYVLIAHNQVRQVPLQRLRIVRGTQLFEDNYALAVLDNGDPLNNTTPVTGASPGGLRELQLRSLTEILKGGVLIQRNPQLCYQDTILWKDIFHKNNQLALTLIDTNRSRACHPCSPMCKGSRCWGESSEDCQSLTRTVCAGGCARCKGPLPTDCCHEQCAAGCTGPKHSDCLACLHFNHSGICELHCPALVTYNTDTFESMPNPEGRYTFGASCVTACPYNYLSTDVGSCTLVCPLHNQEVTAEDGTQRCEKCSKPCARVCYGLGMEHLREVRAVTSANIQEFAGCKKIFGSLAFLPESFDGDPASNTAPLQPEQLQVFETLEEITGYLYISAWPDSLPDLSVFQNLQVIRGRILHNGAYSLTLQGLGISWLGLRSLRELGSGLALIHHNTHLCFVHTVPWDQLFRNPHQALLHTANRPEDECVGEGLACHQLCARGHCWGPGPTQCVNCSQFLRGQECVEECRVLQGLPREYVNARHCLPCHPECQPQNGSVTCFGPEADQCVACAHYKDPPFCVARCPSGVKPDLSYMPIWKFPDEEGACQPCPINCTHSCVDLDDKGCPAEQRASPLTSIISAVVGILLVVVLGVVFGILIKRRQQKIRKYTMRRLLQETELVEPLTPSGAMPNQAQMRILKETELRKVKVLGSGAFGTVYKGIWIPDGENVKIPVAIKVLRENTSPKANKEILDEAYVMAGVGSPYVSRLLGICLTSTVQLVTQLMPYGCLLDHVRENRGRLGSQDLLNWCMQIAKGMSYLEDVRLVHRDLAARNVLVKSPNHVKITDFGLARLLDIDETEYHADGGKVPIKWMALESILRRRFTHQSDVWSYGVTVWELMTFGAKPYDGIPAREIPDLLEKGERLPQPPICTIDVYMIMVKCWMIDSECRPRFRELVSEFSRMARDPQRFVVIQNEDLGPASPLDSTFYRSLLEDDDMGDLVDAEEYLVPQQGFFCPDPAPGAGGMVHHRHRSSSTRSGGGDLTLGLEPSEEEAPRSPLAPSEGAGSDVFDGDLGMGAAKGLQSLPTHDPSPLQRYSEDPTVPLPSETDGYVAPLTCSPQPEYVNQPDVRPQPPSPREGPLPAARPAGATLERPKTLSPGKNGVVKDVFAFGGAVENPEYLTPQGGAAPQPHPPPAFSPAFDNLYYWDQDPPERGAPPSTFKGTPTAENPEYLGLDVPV
Outline: as §1

T1 sequence (P00533 25-1210): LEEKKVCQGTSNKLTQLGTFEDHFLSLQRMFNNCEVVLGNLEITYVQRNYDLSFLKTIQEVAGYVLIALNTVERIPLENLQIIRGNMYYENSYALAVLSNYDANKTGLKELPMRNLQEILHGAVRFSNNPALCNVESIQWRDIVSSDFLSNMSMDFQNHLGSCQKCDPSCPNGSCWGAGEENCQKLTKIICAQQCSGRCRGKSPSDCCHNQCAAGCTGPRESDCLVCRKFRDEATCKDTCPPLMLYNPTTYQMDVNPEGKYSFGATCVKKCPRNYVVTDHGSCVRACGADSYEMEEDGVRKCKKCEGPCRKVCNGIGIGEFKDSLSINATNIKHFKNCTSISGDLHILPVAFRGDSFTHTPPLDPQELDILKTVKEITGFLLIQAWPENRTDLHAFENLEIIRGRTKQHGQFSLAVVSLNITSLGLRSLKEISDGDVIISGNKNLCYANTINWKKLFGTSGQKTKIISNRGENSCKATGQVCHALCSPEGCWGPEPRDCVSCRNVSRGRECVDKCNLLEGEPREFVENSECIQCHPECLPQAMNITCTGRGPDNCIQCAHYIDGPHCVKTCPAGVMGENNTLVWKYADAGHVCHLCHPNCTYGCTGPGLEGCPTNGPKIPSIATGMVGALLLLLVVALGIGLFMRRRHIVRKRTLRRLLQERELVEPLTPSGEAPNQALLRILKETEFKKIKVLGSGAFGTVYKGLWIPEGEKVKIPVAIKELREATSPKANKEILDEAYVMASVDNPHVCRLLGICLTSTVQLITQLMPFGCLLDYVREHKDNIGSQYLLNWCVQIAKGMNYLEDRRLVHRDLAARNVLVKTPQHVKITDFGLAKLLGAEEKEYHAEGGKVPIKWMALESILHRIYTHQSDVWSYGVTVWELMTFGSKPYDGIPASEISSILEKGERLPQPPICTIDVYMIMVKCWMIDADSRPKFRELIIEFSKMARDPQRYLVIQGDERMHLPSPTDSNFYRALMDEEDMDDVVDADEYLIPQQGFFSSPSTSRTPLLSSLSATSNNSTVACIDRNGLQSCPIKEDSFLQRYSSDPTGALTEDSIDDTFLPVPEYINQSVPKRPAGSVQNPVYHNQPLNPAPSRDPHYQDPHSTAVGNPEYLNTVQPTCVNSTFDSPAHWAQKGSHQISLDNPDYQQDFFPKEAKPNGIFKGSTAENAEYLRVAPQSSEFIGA

| Structure (SMILES) | IC50 (EGFR) | IC50 (ErbB2) |
| --- | --- | --- |
| CC(C)c1nc(-c2cccc(NS(=O)(=O)c3c(F)cccc3F)c2)c(-c2ccnc(Nc3ccc(N4CCN5CCOC[C@H]5C4)nc3)n2)s1 [Example 15] | 0.1 to 1 µM | 0.1 to 1 µM |
| CC(C)c1nc(-c2cccc(NS(=O)(=O)c3c(F)cccc3F)c2)c(-c2ccnc(Nc3ccc(N4CCN(CCS(C)(=O)=O)CC4)c(F)c3)n2)s1 [Example 16, 2,6-Difluoro-N-{3-[5-{2-[(3-fluoro-4-{4-[2-(methylsulfonyl)ethyl]-1-piperazinyl}phenyl)amino]-4-pyrimidinyl}-2-(1-methylethyl)-1,3-thiazol-4-yl]ohenyl}benzenesulfonamide hydrochloride] | 0.1 to 1 µM | 0.1 to 1 µM |
| CC(C)c1nc(-c2cccc(NS(=O)(=O)c3c(F)cccc3F)c2)c(-c2ccnc(Nc3ccc(N4CCOCC4)nc3)n2)s1 [Example 17, 2,6-Difluoro-N-{3-[2-(1-methylethyl)-5-(2-{[6-(4-morpholinyl)-3-pyridinyl]amino}-4-pyrimidinyl)-1,3-thiazol-4-yl]phenyl}benzenesulfonamide] | 0.1 to 1 µM | > 1 µM |
| COc1ccc(Nc2nccc(-c3sc(C(C)C)nc3-c3cccc(NS(=O)(=O)c4c(F)cccc4F)c3)n2)cc1N(C)C [Example 18, N-{3-[5-(2-{[3-(Dimethylamino)-4-(methyloxy)phenyl]amino}-4-pyrimidinyl)-2-(1-methylethyl)-1,3-thiazol-4-yl]phenyl}-2,6-difluorobenzenesulfonamide trifluoroacetate] | < 0.1 µM | 0.1 to 1 µM |
| COc1cc(N2CCN(CCS(C)(=O)=O)CC2)c(C)cc1Nc1nccc(-c2sc(C(C)C)nc2-c2cccc(NS(=O)(=O)c3c(F)cccc3F)c2)n1 [Example 19] | < 0.1 µM | < 0.1 µM |
| COc1cc(N2CCC(N3CCN(CCS(C)(=O)=O)CC3)CC2)ccc1Nc1nccc(-c2sc(C(C)C)nc2-c2cccc(NS(=O)(=O)c3c(F)cccc3F)c2)n1 [Example 20, 2,6-Difluoro-N-{3-[2-(1-methylethyl)-5-(2-{[2-(methyloxy)-4-(4-{4-[2-(methylsulfonyl)ethyl]-1-piperazinyl}-1-piperidinyl)phenyl]amino}-4-pyrimidinyl)-1,3-thiazol-4-yl]phenyl}benzenesulfonamide] | < 0.1 µM | < 0.1 µM |
| O=S(=O)(Nc1cccc(-c2nc(N3CCCC3)sc2-c2ccnc(Nc3ccc(N4CCN(CCF)CC4)c(F)c3)n2)c1)c1c(F)cccc1F [Example 21, 2,6-Difluoro-N-{3-[5-[2-({3-fluoro-4-[4-(2-fluoroethyl)-1-piperazinyl]phenyl}amino)-4-pyrimidinyl]-2-(1-pyrrolidinyl)-1,3-thiazol-4-yl]phenyl}benzenesulfonamide] | < 0.1 µM | < 0.1 µM |
| CC(C)c1nc(-c2ccc(F)c(NS(=O)(=O)c3ccccc3F)c2)c(-c2ccnc(Nc3ccc(N4CCN(CCS(C)(=O)=O)CC4)c(F)c3)n2)s1 [Example 22, 2-Fluoro-N-{2-fluoro-5-[5-{2-[(3-fluoro-4-}4-[2-(methylsulfonyl)ethyl]-1-piperazinyl}phenyl)amino]-4-pyrimidinyl}-2-(1-methylethyl)-1,3-thiazol-4-yl]phenyl}benzenesulfonamide hydrochloride] | 0.1 to 1 µM | < 0.1 µM |
| CC(C)c1nc(-c2ccc(F)c(NS(=O)(=O)c3c(F)cccc3F)c2)c(-c2ccnc(Nc3ccc(N4CCOCC4)nc3)n2)s1 [Example 23, 2,6-Difluoro-N-{2-fluoro-5-[2-(1-methylethyl)-5-(2-{[6-(4-morpholinyl)-3-pyridinyl]amino}-4-pyrimidinyl)-1,3-thiazol-4-yl]phenyl}benzenesulfonamide] | 0.1 to 1 µM | 0.1 to 1 µM |
| CC(C)c1nc(-c2ccc(F)c(NS(=O)(=O)c3c(F)cccc3F)c2)c(-c2ccnc(Nc3ccc(N4CCC(C#N)CC4)nc3)n2)s1 [Example 24, N-{5-[5-(2-{[6-(4-Cyano-1-piperidinyl)-3-pyridinyl]amino}-4-pyrimidinyl)-2-(1-methylethyl)-1,3-thiazol-4-yl]-2-fluorophenyl}-2,6-difluorobenzenesulfonamide] | > 1 µM | 0.1 to 1 µM |
| CC(C)c1nc(-c2ccc(F)c(NS(=O)(=O)c3c(F)cccc3F)c2)c(-c2ccnc(Nc3ccc(N4CCN(CCF)CC4)c(F)c3)n2)s1 [Example 25] | 0.1 to 1 µM | < 0.1 µM |
| O=S(=O)(Nc1cc(-c2nc(N3CCCC3)sc2-c2ccnc(Nc3ccc(N4CCOCC4)nc3)n2)ccc1F)c1c(F)cccc1F [Example 26, 2,6-Difluoro-N-{2-fluoro-5-[5-(2-{(6-(4-morpholinyl)-3-pyridinyl]amino}-4-pyrimidinyl)-2-(1-pyrrolidinyl)-1,3-thiazol-4-yl]phenyl}benzenesulfonamide] | 0.1 to 1 µM | 0.1 to 1 µM |
| CN(C)c1nc(-c2ccc(F)c(NS(=O)(=O)c3c(F)cccc3F)c2)c(-c2ccnc(Nc3ccc(N4CCOCC4)nc3)n2)s1 [Example 27, N-{5-[2-(Dimethylamino)-5-(2-{[6-(4-morpholinyl)-3-pyridinyl]amino}-4-pyrimidinyl)-1,3-thiazol-4-yl]-2-fluorophenyl}-2,6-difluorobenzenesulfonamide] | 0.1 to 1 µM | 0.1 to 1 µM |
| CC(C)(C)c1nc(-c2ccc(F)c(NS(=O)(=O)c3c(F)cccc3F)c2)c(-c2ccnc(Nc3ccc(N4CCOCC4)nc3)n2)s1 [Example 28, N-{5-[2-(1,1-Dimethylethyl)-5-(2-{[[6-(4-morpholinyl)-3-pyridinyl]amino}-4-pyrimidinyl)-1,3-thiazol-4-yl]-2-fluorophenyl]-2,6-difluorobenzenesulfonamide hydrochloride] | > 1 µM | 0.1 to 1 µM |
| CC(C)c1nc(-c2cccc(NS(=O)(=O)c3c(F)cccc3F)c2F)c(-c2ccnc(Nc3ccc(N4CCN(CCF)CC4)c(F)c3)n2)s1 [Example 29, 2,6-Difluoro-N-{2-fluoro-3-[5-[2-({3-fluoro-4-[4-(2-fluoroethyl)-1-piperazinyl]phenyl}amino)-4-pyrimidinyl]-2-(1-methylethyl)-1,3-thiazol-4-yl]phenyl}benzenesulfonamide] | > 1 µM | 0.1 to 1 µM |
| CC(C)c1nc(-c2cccc(NS(=O)(=O)c3c(F)cccc3F)c2F)c(-c2ccnc(Nc3cnc(N4CCOCC4)c(F)c3)n2)s1 [Example 30, 2,6-Difluoro-N-{2-fluoro-3-[5-(2-{[5-fluoro-6-(4-morpholinyl)-3-pyridinyl]amino}-4-pyrimidinyl)-2-(1-methylethyl)-1,3-thiazol-4-yl]phenyl}benzenesulfonamide] | > 1 µM | > 1 µM |

| Structure (SMILES) | IC50 (EGFR) | IC50 (ErbB2) |
| --- | --- | --- |
| CC(C)c1nc(-c2cc(F)c(F)c(NS(=O)(=O)c3cccc(F)c3)c2)c(-c2ccnc(Nc3cnc(N4CCOCC4)c(F)c3)n2)s1 [Example 31, N-{2,3-Difluoro-5-[5-(2-{[5-fluoro-6-(4-morpholinyl)-3-pyridinyl]amino}-4-pyrimidinyl)-2-(1-methylethyl)-1,3-thiazol-4-yl]phenyl}-3-fluorobenzenesulfonamide] | > 1 µM | > 1 µM |
| CC(C)c1nc(-c2ccnc(NS(=O)(=O)c3c(F)cccc3F)c2)c(-c2ccnc(Nc3ccc(N4CCOCC4)nc3)n2)s1 [Example 32, 2,6-Difluoro-N-{4-[2-(1-methylethyl)-5-(2-{[6-(4-morpholinyl}-3-pyridinyl]amino}-4-pyrimidinyl)-1,3-thiazol-4-yl]-2-pyridinyl}benzenesulfonamide] | > 1 µM | > 1 µM |
| CC(C)c1nc(-c2ccnc(NS(=O)(=O)c3c(F)cccc3F)c2)c(-c2ccnc(Nc3cnc(N4CCOCC4)c(F)c3)n2)s1 [Example 33] | > 1 µM | > 1 µM |
| CCc1nc(-c2cccc(CNS(=O)(=O)c3ccccc3)c2)c(-c2ccnc(Nc3ccc(N4CCOCC4)c(F)c3)n2)s1 [Example 34] | > 1 µM | 0.1 to 1 µM |
| CC(=O)N1CCN(c2ccc(Nc3nccc(-c4sc(C(C)C)nc4-c4cccc(NS(=O)(=O)c5cn(C)cn5)c4)n3)cn2)CC1 [Example 36] | < 0.1 µM | > 1 µM |
| CC(C)c1nc(-c2cccc(NS(=O)(=O)C3CCCCC3)c2)c(-c2ccnc(Nc3ccc(N4CCOCC4)c(F)c3)n2)s1 [Example 38] | > 1 µM | 0.1 to 1 µM |
| CC(=O)N1CCN(c2ccc(Nc3nccc(-c4sc(C(C)C)nc4-c4cccc(NS(=O)(=O)C5CCCCC5)c4)n3)cn2)CC1 [Example 39] | 0.1 to 1 µM | > 1 µM |
| Cc1nc(Cl)sc1S(=O)(=O)Nc1cccc(-c2nc(C(C)C)sc2-c2ccnc(Nc3ccc(N4CCOCC4)nc3)n2)c1 [Example 42] | > 1 µM | > 1 µM |
| CC(C)c1nc(-c2cccc(NS(=O)(=O)c3c(F)cccc3F)n2)c(-c2ccnc(Nc3ccc(N4CCOCC4)nc3)n2)s1 [Example 44] | > 1 µM | > 1 µM |
| COc1ccc(S(=O)(=O)Nc2cccc(-c3nc(C(C)C)sc3-c3ccnc(Nc4ccc(N5CCOCC5)nc4)n3)c2)cn1 [Example 49] | > 1 µM | > 1 µM |
| CC(C)c1nc(-c2cccc(NS(=O)(=O)c3cccs3)c2)c(-c2ccnc(Nc3ccc(N4CCOCC4)nc3)n2)s1 [Example 51] | > 1 µM | 0.1 to 1 µM |
| CC(C)c1nc(-c2cccc(NS(=O)(=O)c3cccnc3)c2)c(-c2ccnc(Nc3ccc(N4CCOCC4)nc3)n2)s1 [Example 52] | 0.1 to 1 µM | 0.1 to 1 µM |
| CC(C)c1nc(-c2cccc(NS(=O)(=O)c3ccco3)c2)c(-c2ccnc(Nc3ccc(N4CCOCC4)nc3)n2)s1 [Example 53] | > 1 µM | > 1 µM |
| CC(=O)N1CCN(c2ccc(Nc3nccc(-c4oc(C(C)C)nc4-c4cccc(NS(=O)(=O)c5c(F)cccc5F)c4)n3)cn2)CC1 [Example 56] | > 1 µM | > 1 µM |
| CC(C)c1nc(-c2cccc(NS(=O)(=O)c3c(F)cccc3F)c2)c(-c2ccnc(Nc3ccc(N4CCOCC4)c(F)c3)n2)o1 [Example 57] | 0.1 to 1 µM | > 1 µM |
| Nc1nc(-c2cccc(NS(=O)(=O)c3c(F)cccc3F)c2)c(-c2ccnc(Nc3ccc(N4CCOCC4)nc3)n2)s1 [Example 62] | 0.1 to 1 µM | 0.1 to 1 µM |
